Test results as given in patent US20260284009A1, “COMPOUNDS FOR NOS-RELATED CANCERS AND METHODS OF USE” (YISSUM RESEARCH DEVELOPMENT COMPANY OF THE HEBREW …, priority 2023, published 2026).

Columns and labels:
Format in all cases: cell-based, human
SH-SY5Y cells [1] = test: Nitrite levels (marker of NO levels) by Griess assay in SH-SY5Y cells; conditions: 100 μM 7-NI or 20 nM siRNA (SEQ ID NO: 4), n=3
Procedure: In FIGS. 2A-2C, for quantitative analysis absorbance at 585 nm was normalized for total protein. Data are expressed as the mean±SEM. Statistical significance was determined using a One-way ANOVA followed by Fisher's LSD multiple comparison post hoc test. *P<0.05 and **P<0.01.
FIG. 2B: Quantitative analysis of nitrite levels (a marker of NO levels) measured by Griess assay for SH-SY5Y cells following administration of the control (“SH-SY5Y”) (n=3), 0.1% DMSO (“SH-SY5Y+NC”) (n=3), 100 μM 7-NI (“SH-SY5Y+7-NI”) (n=3), 20 nM siRNA (SEQ ID NO: 4) (“SH-SY5Y+si-nNOS”) (n=3).

SH-SY5Y cells [2] = test: Confocal immunofluorescence of SH-SY5Y cells (3-Ntyr, Syp); conditions: 7-NI
Procedure: Human neuroblastoma (“NB”) SH-SY5Y cells were obtained from the American Type Culture Collection (ATCC) and maintained in Dulbecco's modified Eagle's medium (DMEM) and Ham's F-12 (1:1) supplemented with 10% fetal bovine serum, 2 mM L-glutamine, and 100 U/ml penicillin-G/[…] streptomycin in the humidified atmosphere (37° C., 5% CO2). Cells were plated onto 25 cm^2 and 75 cm^2 at a density of […] respectively for Western blotting (WB) and 1×10^5 for immunofluorescence. The SH-SY5Y cells were treated with 100 μM 7-nitroindazole (7-NI) for 24 hr. This concentration was confirmed in the dose-response experiment (FIG. 1) using an MTT viability assay.
Cells cultured on coverslips coated with Poly-D-Lysine were washed three times with PBS and fixed in 4% paraformaldehyde for 15-20 min at room temperature. The fixed cells were washed three times with PBS and incubated in the presence of permeabilization buffer (PBS containing 0.1% Triton X-100) for 5 min at room temperature. […]

U87-MG cells [3] = test: Western blot of U87-MG cells (3-Ntyr, CD70, iNOS, nNOS); conditions: vs control and vehicle
Procedure: (§1) Human glioblastoma U87-MG cells were obtained from the American Type Culture Collection (ATCC) and maintained in Dulbecco's modified Eagle's Medium (DMEM) and Ham's F-12 (1:1) supplemented with 10% fetal bovine serum, 2 mM L-glutamine, and 100 U/ml penicillin-G/[…] streptomycin in the humidified atmosphere (37° C., 5% CO2). Cells were plated onto 25 cm^2 and 75 cm^2 at a density of […] respectively for Western blotting (WB) and 1×10^5 for immunofluorescence. The U87-MG cells were treated with 100 μM 7-nitroindazole (7-NI) for 24 hr. This concentration was confirmed in the dose-response experiment (FIG. 7) using an MTT viability assay.
Cells were lysed in ice-cold RIPA buffer containing 50 mM Tris-HCl, 1% Nonidet P-40, 0.25% sodium deoxycholate, 150 mM NaCl, protease-, and phosphatase inhibitor cocktails, pH 7.4. After sonication, the lysates were centrifuged at 17,000 g for 30 min at 4° C., and the supernatant was collected. The protein concentrations were determined with the BCA protein assay. Proteins were resolved by SDS-PAGE, transferred to a PVDF membrane, and probed with the following antibodies: anti-CD70 (rabbit, diluted 1:1000), and anti-3-Nitrotyrosine (rabbit, diluted 1:5000) from Abcam. All primary antibodies, except anti-3-Nitrotyrosine, were purchased from Cell Signaling Technology. The blots were then visualized using an enhanced chemiluminescence (ECL) system.

U87-MG cells [4] = test: Clonogenic survival (colony) assay in U87-MG cells
Procedure: as §1, with “hr.” for “hr. This concentration was confirmed in the dose-response experiment (FIG. 7) using an MTT viability assay.”
Cells were seeded into 6-well plates at concentrations of 500/well or 1000/well in triplicates. After 24 hours, 7-NI was added, or cells were transiently transfected with siRNA-nNOS, as described above, before changing to serum-containing medium. […] Colonies were stained with crystal violet, washed with PBS, air-dried, and imaged. The colonies were visualized using ImageJ software. Cell colonies of greater than 50 cells were identified and counted.
In a particular example, in vitro and in vivo experiments were performed using U87-MG cells and U87-MG-xenografted mice, respectively, as a glioblastoma model.

nNOS = nNOS expression level in U87-MG cells; conditions: both the lower dose and higher dose, compared to the control treatment; not statistically significant (FIG. 15)
CD70 = CD70 expression level in U87-MG cells; conditions: both the lower and higher doses, compared to the control; not statistically significant (FIG. 13)
[5] = 7-NI, not statistically significantly

## O=[N+]([O-])c1cccc2cn[nH]c12 [7-NI, 7-nitroindazole]
SH-SY5Y cells [1]
  nitrite levels (a marker of NO levels): significant decrease
SH-SY5Y cells [2]
  fluorescence intensity of 3-Ntyr: significantly decreased
  fluorescence intensity of Syp: significantly decreased
U87-MG cells [3]; 100 μM 7-NI, 24 hr
  3-Ntyr levels: significantly reduced
U87-MG cells [3]; 7-NI
  expression level of iNOS: unchanged
U87-MG cells [3]; [5]
  expression level of CD70: slightly decreased
  expression level of nNOS: slightly decreased
U87-MG cells [4]; 7-NI, vs control and negative control (0.1% DMSO)
  colony growth: significantly impacted

## CC(=N)NCCCC[C@H](N)C(=O)O [L-NIL, N^6-(1-iminoethyl)-L-lysine]
nNOS
  expression level of nNOS: reduced
CD70
  expression level of CD70: slightly decreased
U87-MG cells [4]; higher dose of L-NIL, both experiments, vs control
  colony growth: significant decrease
U87-MG cells [4]; lower dose of L-NIL, one experiment (FIG. 9), vs control
  colony growth: significantly reduced
U87-MG cells [4]; lower dose of L-NIL, second experiment (FIGS. 8C-8D), reduced vs control
  colony growth: not statistically significant
